Here are results for 18 molecules from patent publication US10072011B2, “Substituted bridged urea analogs as sirtuin modulators” (GlaxoSmithKline Intellectual Property (No.2) Limited, priority 2014, dated 2018).

The target of the experiment is T1, SIRT1 (Homo sapiens, UniProt Q96EB6).
T1 sequence (Q96EB6 1-747): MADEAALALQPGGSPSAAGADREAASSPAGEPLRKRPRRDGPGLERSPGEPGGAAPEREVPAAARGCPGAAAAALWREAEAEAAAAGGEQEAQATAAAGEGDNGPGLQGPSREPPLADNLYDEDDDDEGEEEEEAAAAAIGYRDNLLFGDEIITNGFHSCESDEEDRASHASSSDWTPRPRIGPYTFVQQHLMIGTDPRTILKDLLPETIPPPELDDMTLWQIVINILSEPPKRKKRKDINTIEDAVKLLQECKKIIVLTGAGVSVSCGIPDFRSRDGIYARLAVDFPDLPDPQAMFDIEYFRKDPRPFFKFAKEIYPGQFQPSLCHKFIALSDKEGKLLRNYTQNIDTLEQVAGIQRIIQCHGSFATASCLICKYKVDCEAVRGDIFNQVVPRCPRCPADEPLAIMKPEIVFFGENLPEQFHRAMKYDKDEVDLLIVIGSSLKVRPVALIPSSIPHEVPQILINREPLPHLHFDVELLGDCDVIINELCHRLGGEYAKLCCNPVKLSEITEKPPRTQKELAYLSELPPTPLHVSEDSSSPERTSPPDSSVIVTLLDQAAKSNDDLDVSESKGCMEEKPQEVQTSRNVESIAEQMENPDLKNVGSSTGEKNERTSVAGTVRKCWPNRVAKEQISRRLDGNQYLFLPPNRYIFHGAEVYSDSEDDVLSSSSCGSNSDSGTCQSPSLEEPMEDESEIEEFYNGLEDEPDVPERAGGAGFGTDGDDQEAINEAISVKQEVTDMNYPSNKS
As to the kind of experiment: Trp mass spectrometry assay of SIRT1 activation (Ac-R-H-K-K(Ac)-W-NH2 peptide). Conditions: Trp peptide 0.5 μM, 120 μM βNAD+, 10 nM SIRT1, 25 min at 25° C.; for Emax: 25 min, relative to control (100%), read-out: TRP MAX RESP (percent maximum fold activation). In kind it is biochemical. Summed up: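 Mass spectrometry read-out (OAADPR formed, or deacetylated Trp peptide) after a 25 min NAD-dependent deacetylation by E. coli-expressed His-SIRT1, stopped with formic acid.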

Consider `CNC(=O)c1ccnc(NC(=O)N2c3nc(C(=O)N[C@H](C)C(F)(F)F)ccc3N3CC[C@H]2C3)c1` [Example 151, (4S)—N5-(4-(methylcarbamoyl)pyridin-2-yl)-N7-((R)-1,1,1-trifluoropropan-2-yl)-3,4-dihydro-1,4-methanopyrido[2,3-b][1,4]diazepine-5,7(2H)-dicarboxamide], for which the Emax was greater than 150% and the “TRP Activity (EC1.5, concentration of test compound that results in 150% activation of SIRT1)” value is reported as “A (EC1.5<1 μM)”.
The like results for `C[C@@H](NC(=O)c1ccc2c(n1)N(C(=O)Nc1cc(C(=O)NN)ccn1)[C@H]1CCN2C1)C(F)(F)F` [Example 152, (4S)—N5-(4-(hydrazinecarbonyl)pyridin-2-yl)-N7-((R)-1,1,1-trifluoropropan-2-yl)-3,4-dihydro-1,4-methanopyrido[2,3-b][1,4]diazepine-5,7(2H)-dicarboxamide] were, in that order, greater than 150% and “A (EC1.5<1 μM)”.
On to `C[C@@H](NC(=O)c1ccc2c(n1)N(C(=O)Nc1ccc(OC[C@@H](O)CO)cn1)[C@H]1CCN2C1)C(F)(F)F` [Example 153, (4S)—N5-(5-((S)-2,3-dihydroxypropoxy)pyridin-2-yl)-N7-((R)-1,1,1-trifluoropropan-2-yl)-3,4-dihydro-1,4-methanopyrido[2,3-b][1,4]diazepine-5,7(2H)-dicarboxamide], for which the Emax is greater than 150% and the “TRP Activity (EC1.5, concentration of test compound that results in 150% activation of SIRT1)” value is on record as “A (EC1.5<1 μM)”.
For `C[C@@H](NC(=O)c1ccc2c(n1)N(C(=O)Nc1nccc(OC[C@@H](O)CO)n1)[C@H]1CCN2C1)C(F)(F)F` [Example 154, (4S)—N5-(4-((S)-2,3-dihydroxypropoxy)pyrimidin-2-yl)-N7-((R)-1,1,1-trifluoropropan-2-yl)-3,4-dihydro-1,4-methanopyrido[2,3-b][1,4]diazepine-5,7(2H)-dicarboxamide], in that order: greater than 150% and “A (EC1.5<1 μM)”.
The like results for `C[C@@H](NC(=O)c1ccc2c(n1)N(C(=O)Nc1cncc(OC[C@H](O)CO)n1)[C@H]1CCN2C1)C(F)(F)F` [Example 155, (4S)—N5-(6-((R)-2,3-dihydroxypropoxy)pyrazin-2-yl)-N7-((R)-1,1,1-trifluoropropan-2-yl)-3,4-dihydro-1,4-methanopyrido[2,3-b][1,4]diazepine-5,7(2H)-dicarboxamide] were, in that order, greater than 150% and “A (EC1.5<1 μM)”.
The like results for `Cc1ncc(-c2ccnc(NC(=O)N3c4nc(C(=O)N[C@H](C)C(F)(F)F)ccc4N4CC[C@H]3C4)n2)o1` [Example 156, (4S)—N5-(4-(2-methyloxazol-5-yl)pyrimidin-2-yl)-N7-((R)-1,1,1-trifluoropropan-2-yl)-3,4-dihydro-1,4-methanopyrido[2,3-b][1,4]diazepine-5,7(2H)-dicarboxamide] were, in that order, greater than 150% and “A (EC1.5<1 μM)”.
Turning to `Cc1ncc(-c2ccnc(NC(=O)N3c4nc(C(=O)NCC(F)(F)F)ccc4N4CC[C@H]3C4)n2)o1` [Example 157, (4S)—N5-(4-(2-methyloxazol-5-yl)pyrimidin-2-yl)-N7-(2,2,2-trifluoroethyl)-3,4-dihydro-1,4-methanopyrido[2,3-b][1,4]diazepine-5,7(2H)-dicarboxamide], the Emax is greater than 150% and the “TRP Activity (EC1.5, concentration of test compound that results in 150% activation of SIRT1)” value is on record as “A (EC1.5<1 μM)”.
The like results for `N#Cc1ccc(NC(=O)N2c3nc(C(=O)NCC(F)(F)F)ccc3N3CC[C@H]2C3)nc1` [Example 158, (4S)—N5-(5-cyanopyridin-2-yl)-N7-(2,2,2-trifluoroethyl)-3,4-dihydro-1,4-methanopyrido[2,3-b][1,4]diazepine-5,7(2H)-dicarboxamide] were, in that order, greater than 150% and “A (EC1.5<1 μM)”.
For `O=C(N[C@H](CO)C(F)(F)F)c1ccc2c(n1)N(C(=O)Nc1cc3c(cn1)OCCC3)[C@H]1CCN2C1` [Example 159], the Emax is greater than 150% and the “TRP Activity (EC1.5, concentration of test compound that results in 150% activation of SIRT1)” value is listed as “A (EC1.5<1 μM)”.
In the case of `O=C(NC1CC1)c1ccc2c(n1)N(C(=O)Nc1cc3c(cn1)OCCC3)[C@H]1CCN2C1` [Example 160, (4S)—N7-cyclopropyl-N5-(3,4-dihydro-2H-pyrano[2,3-c]pyridin-6-yl)-3,4-dihydro-1,4-methanopyrido[2,3-b][1,4]diazepine-5,7(2H)-dicarboxamide], the Emax is greater than 150% and the “TRP Activity (EC1.5, concentration of test compound that results in 150% activation of SIRT1)” value is “A (EC1.5<1 μM)”.
In the case of `O=C(NCC(F)(F)F)c1ccc2c(n1)N(C(=O)Nc1cc(OCCO)ccn1)[C@H]1CCN2C1` [Example 161, (4S)—N5-(4-(2-hydroxyethoxy)pyridin-2-yl)-N7-(2,2,2-trifluoroethyl)-3,4-dihydro-1,4-methanopyrido[2,3-b][1,4]diazepine-5,7(2H)-dicarboxamide], the Emax was greater than 150% and the “TRP Activity (EC1.5, concentration of test compound that results in 150% activation of SIRT1)” value is on record as “A (EC1.5<1 μM)”.
For `C[C@@H](NC(=O)c1ccc2c(n1)N(C(=O)Nc1cc(OC[C@@H](O)CO)ncn1)[C@H]1CCN2C1)C(F)(F)F` [Example 162, (4S)—N5-(6-((S)-2,3-dihydroxypropoxy)pyrimidin-4-yl)-N7-((R)-1,1,1-trifluoropropan-2-yl)-3,4-dihydro-1,4-methanopyrido[2,3-b][1,4]diazepine-5,7(2H)-dicarboxamide], in that order: greater than 150% and “A (EC1.5<1 μM)”.
For `C[C@@H](NC(=O)c1ccc2c(n1)N(C(=O)Nc1n[nH]c3ncccc13)[C@H]1CCN2C1)C(F)(F)F` [Example 163, (4S)—N5-(1H-pyrazolo[3,4-b]pyridin-3-yl)-N7-((R)-1,1,1-trifluoropropan-2-yl)-3,4-dihydro-1,4-methanopyrido[2,3-b][1,4]diazepine-5,7(2H)-dicarboxamide], in that order: greater than 150% and “A (EC1.5<1 μM)”.
The like results for `C#Cc1ccnc(NC(=O)N2c3nc(C(=O)NCC(F)(F)F)ccc3N3CC[C@H]2C3)c1` [Example 164, (4S)—N5-(4-ethynylpyridin-2-yl)-N7-(2,2,2-trifluoroethyl)-3,4-dihydro-1,4-methanopyrido[2,3-b][1,4]diazepine-5,7(2H)-dicarboxamide] were, in that order, greater than 150% and “A (EC1.5<1 μM)”.
Take `C[C@@H](NC(=O)c1ccc2c(n1)N(C(=O)Nc1cc(N3CCOC3=O)ccn1)[C@H]1CCN2C1)C(F)(F)F` [Example 165, (4S)—N5-(4-(2-oxooxazolidin-3-yl)pyridin-2-yl)-N7-((R)-1,1,1-trifluoropropan-2-yl)-3,4-dihydro-1,4-methanopyrido[2,3-b][1,4]diazepine-5,7(2H)-dicarboxamide]: the Emax was greater than 150% and the “TRP Activity (EC1.5, concentration of test compound that results in 150% activation of SIRT1)” value is given as “A (EC1.5<1 μM)”.
The like results for `C[C@@H](NC(=O)c1ccc2c(n1)N(C(=O)Nc1ncc3[nH]cnc3n1)[C@H]1CCN2C1)C(F)(F)F` [Example 166, (4S)—N5-(7H-purin-2-yl)-N7-((R)-1,1,1-trifluoropropan-2-yl)-3,4-dihydro-1,4-methanopyrido[2,3-b][1,4]diazepine-5,7(2H)-dicarboxamide] were, in that order, greater than 150% and “A (EC1.5<1 μM)”.
The like results for `CC(=O)Nc1ccnc(NC(=O)N2c3nc(C(=O)NCC(F)(F)F)ccc3N3CC[C@H]2C3)c1` [Example 167, (4S)—N5-(4-acetamidopyridin-2-yl)-N7-(2,2,2-trifluoroethyl)-3,4-dihydro-1,4-methanopyrido[2,3-b][1,4]diazepine-5,7(2H)-dicarboxamide] were, in that order, greater than 150% and “A (EC1.5<1 μM)”.
For `CNC(=O)c1ccc(NC(=O)N2c3nc(C(=O)NCC(F)(F)F)ccc3N3CC[C@H]2C3)nc1` [Example 168, (4S)—N5-(5-(methylcarbamoyl)pyridin-2-yl)-N7-(2,2,2-trifluoroethyl)-3,4-dihydro-1,4-methanopyrido[2,3-b][1,4]diazepine-5,7(2H)-dicarboxamide], in that order: greater than 150% and “A (EC1.5<1 μM)”.
